Results on two compounds are retold here after patent publication US20250210145A1, “METHOD FOR DETERMINING THE RESISTANCE OF A MICROORGANISM TO AN ANTIMICROBIAL AGENT” (Commissariat à l'Energie Atomique et aux Energies …, priority 2023, published 2025).

The test system of test [1] is Escherichia coli strain ATCC35218 ("EC207"). The note with it: cited from earlier work.
Test [2] concerns Escherichia coli strain ATCC25922 ("EC10"). As to the kind of experiment: FTIR heavy-water labeling level (metabolism) versus antibiotic concentration, strain EC10. Type of test: cell-based. Conditions: FIG. 4C, amoxicillin 1-64 μg/mL, two hours incubation, Mueller-Hinton medium with 50% v/v heavy water. The method, then:
(§1) Once the LDA classifier had been parameterized, it was used in a test phase on Escherichia coli cultures.
(§2) An overnight pre-culture was performed to synchronize the metabolic states of the bacterial populations. Test samples were prepared using different concentrations of amoxicillin (64, 32, 16, 8, 4, 2 and 1 μg/mL), and a culture of each strain was prepared in 2 ml of Mueller-Hinton medium with 50% v/v heavy water and antibiotic. A control sample without antibiotic was prepared. The test samples were then incubated for two hours. After incubation, the test samples were centrifuged and re-suspended in 30 μL of water, then a 5 μl drop was placed on a calcium fluoride slide. The slide was dried by exposure to a hot, dry atmosphere. On each test sample, 64 spectra are acquired using an FTIR microscope at 15× magnification, in order to eliminate potential variations in the sample's thickness of texture.
(§3) This provided test spectra corresponding to the exposure of bacterial strains to different antibiotic concentrations. The algorithm parameterized during the training phase enabled measuring a labeling level for each sample, which is considered representative of metabolic activity.

Test [3] shares this test system. The note with it: cited from earlier work.
Test [4] has as its system Escherichia coli strain ATCC35218 ("EC207"). As to the kind of experiment: FTIR heavy-water labeling level (metabolism) versus antibiotic concentration, strain EC207. Type of test: cell-based. The note with it: FIG. 4C, amoxicillin 1-64 μg/mL, two hours incubation, Mueller-Hinton medium with 50% v/v heavy water. The method, then:
as §1, §2, §3

In test [5] the test system is Staphylococcus Saprophyticus strains SS91, SS96. The test is described as follows: FTIR heavy-water labeling level (metabolism) versus antibiotic concentration, strains not used during training. The class given is cell-based. Conditions: FIG. 5; each of strains SS91 and SS96, above a strain-specific antibiotic concentration (value not given). The text has this: The x-axis corresponds to the antibiotic concentration (Gentamicin). The y-axis corresponds to a labeling level.

In the case of `CC1(C)S[C@@H]2[C@H](NC(=O)[C@H](N)c3ccc(O)cc3)C(=O)N2[C@H]1C(=O)O` [amoxicillin], the entries for the “sensitivity to the antibiotic (reference strain status)” value in test [1] and in test [3] were “resistant” and “sensitive”, respectively. Also, the “concentration above which the strain is sensitive (labeling level decreases)” value in test [2] is about 10 µg/mL. In test [3] (reference strain ATCC25922 (EC10)), the “concentration above which growth inhibition is exhibited” value was 4 µg/mL. For the same compound, the “resistance judged from labeling level (metabolism)” value in test [4] is “resistant to all the antibiotic concentrations used”.

Gentamicin: the “labeling level as a function of antibiotic concentration” value in test [5] is “labeling level decreases”.
